Biological target: T1, recombinant human vasopressin V2 receptors (Homo sapiens, UniProt P30518)
T1 construct: expressed in transfected cells; host or cells: CHO cell line (plasma membranes)
Assay: In vitro binding assay, [H3]-AVP displacement at vasopressin V2 receptors
Conditions: plasma membranes from tissues or CHO cell line; 3.5 nM [H3]-AVP; 45 minutes at 25° C.; read-out: IC50 (concentration of product that inhibits 50% of the specific binding)
Description: The affinity of the compounds of the invention for vasopressin V2 receptors was measured in in vitro binding assays, as described in J. Pharmacol. Exp. Ther., (2002), 300, pp. 1122-1130.
Plasma membranes (approximately 20 μg/ml) originating from tissues or the CHO cell line expressing recombinant human vasopressin V2 receptors are incubated for 45 minutes at 25° C. in 200 μl of TRIS-HCl buffer (50 mM; pH 8.2) containing 2 mM of MgCl2, 1 mM of EDTA, 0.1% of BSA, 1 mg/ml of bacitracin and 3.5 nM of [H^3]-AVP. The reaction is stopped by filtration and washing over GF/B filters. The nonspecific binding is determined in the presence of 1 μM of AVP. The compounds of the invention, dissolved beforehand at the concentration of 10^−2 M in DMSO, are tested in a dilution range.
For each concentration, the results are expressed as percentage inhibition of specific binding. An IC50 (concentration of product that inhibits 50% of the specific binding) is determined for each of the products using the “RS1 binding” program (BBN Domain, Cambridge, Mass).

T1 sequence (P30518 whole entry): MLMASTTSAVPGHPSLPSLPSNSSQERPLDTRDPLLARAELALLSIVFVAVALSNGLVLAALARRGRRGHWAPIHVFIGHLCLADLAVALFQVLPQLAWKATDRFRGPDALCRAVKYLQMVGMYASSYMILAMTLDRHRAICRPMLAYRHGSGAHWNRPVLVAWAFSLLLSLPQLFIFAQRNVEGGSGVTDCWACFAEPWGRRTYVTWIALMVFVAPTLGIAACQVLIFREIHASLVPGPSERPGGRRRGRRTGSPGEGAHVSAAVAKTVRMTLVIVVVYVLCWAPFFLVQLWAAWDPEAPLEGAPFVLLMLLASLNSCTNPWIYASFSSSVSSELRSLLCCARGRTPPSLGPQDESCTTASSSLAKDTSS

CCOc1ccc2c(c1)C1(CCC(OCC(=O)N3CCOCC3)CC1)C(=O)N2S(=O)(=O)c1ccc(C(=O)NC(C)(C)C)cc1OC (stereo not shown) [Example]
IC50: ~7.3 nM

— patent US20070191367A1, “3-SPIROINDOLIN-2-ONE DERIVATIVES, PREPARATION AND THERAPEUTIC USE THEREOF” (SANOFI-AVENTIS, priority 2004, published 2007)
